In patent publication US11453689B2, “3-pyrrolidine-indole derivatives as serotonergic psychedelic agents for the treatment of CNS disorders” (Mindset Pharma Inc., priority 2020, dated 2022):

What was measured:
[1] = tested on: head-twitch response (HTR) in male C57BL6 mice; assay: Mouse head-twitch response (HTR); assay type: in vivo; conditions: M100907 0.5 mg/kg IP before I-2 10 mg/kg SC
Procedure: Male, C57BL/6J mice (body weight range 20-30 g) were dosed with the appropriate dose of test article, and following a 1-minute pre-treatment time, placed in individual observation chambers. Animals were visually assessed for the incidence head twitches continuously over a 1 hr period. Head twitches were defined as a rapid jerk of the head which was not elicited by an external tactile stimulus (Come and Pickering, Psychopharmacologia, 1967, 11(1): 65-78). Each head twitch was individually counted by a trained observer, and the data expressed as the mean±SEM of 6-10 mice per group. Mice were used in a single experiment only.
The effect of various doses of exemplary compound of Formula I, I-2, on head-twitch response (HTR) in male C57BL6 mice were measured. The mice were treated with compound I-2 (0.03-10 mg/kg, SC) by SC route (N=6 mice/dose), and the total number of head twitches were recorded over a 1h period. Data is expressed as mean±SEM. The induction of head twitches elicited by 5-HT2A receptor agonists is believed to represent a behavioural proxy of their psychedelic effects.
To evaluate the involvement of 5-HT2A receptor on the HTR induced by exemplary compounds of Formula I, mice were pretreated with the selective 5-HT2AR antagonist M100907 (also known as volinanserin) prior to the administration of exemplary compounds of Formula I, for example, 1-2 (10 mg/kg SC).

[2] = In vivo pharmacokinetics in male SD rats (IV and PO); conditions: rat; for AUC(0-t): read-out: AUC0-tlast; for half-life: read-out: Apparent t1/2 (converted); for MRT inf: read-out: MRT0-inf
Procedure: (§1) Example 26: In Vivo Assessment of the Pharmacokinetics in Mice and Rats Formulations were administered intravenously (i.v.) via the tail vein or orally (p.o.) by gavage with disposable feeding needles. i. Analysis software: Phoenix® WinNonlin® 8.2 (Pharsight, Certara, Mountainview, Calif.) ii. Analysis methods: non-compartmental analysis, linear up/log down trapezoidal rule iii. PK parameters: C0, t1/2, AUC0-tlast. AUC0-∞, CL, Vss, MRT, tmax(po), Cmax(po), F, as appropriate • C0 concentration extrapolated to time zero following an i.v. dose • tmax time at which maximum concentration is observed • Cmax maximum observed concentration • Apparent t1/2 apparent terminal half-life • AUC0-tlast area under the concentration vs time curve from time 0 to the time of the last measurable concentration • AUC0-inf area under the concentration vs time curve from time 0 to infinity • CL systemic clearance • MRT0-inf mean residence time from time zero to infinity • Vss steady-state volume of distribution • F bioavailability=(Dose^iv*AUC^po)/(Dose^po*AUC^iv)*100

[3] = In vivo pharmacokinetics in male C57BL/6 mice (IV and PO); conditions: mouse; for AUC(0-t): read-out: AUC0-tlast; for half-life: read-out: Apparent t1/2 (converted); for MRT inf: read-out: MRT0-inf; for Vd: read-out: Vss
Procedure: Example 26: In Vivo Assessment of the Pharmacokinetics in Mice and Rats […]
Male C57BL/6 mice (25-30 g) from Charles River Labs were acclimatized for a minimum of 5 days prior to dosing. Body weights will be recorded on the day of dosing.
Animals dosed p.o. were deprived of food overnight and fed ˜2 h following dosing.
Formulations were administered intravenously (i.v.) via the tail vein or orally (p.o.) by gavage with disposable feeding needles.
Serial blood samples were collected via tail snip. Terminal blood samples will be collected under isoflurane anesthesia by cardiac puncture.
All blood samples were transferred into K2EDTA tubes on wet ice and centrifuged within 5 min (3200×g for 5 min at 4° C.) to obtain plasma. Plasma will be stored at −80° C. until analysis.
as §1, with “AB Sciex QTRAP 4000 or 6500 MS/MS system equipped with an LC system with a binary pump, a solvent degasser, a thermostatted column compartment” for “Example 26: In Vivo Assessment of the Pharmacokinetics in Mice”, “a multiplate autosampler.” for “Rats Formulations were administered intravenously (i.v.) via the tail vein or orally (p.o.) by gavage with disposable feeding needles.”

[4] = male, SD, plasma, IV, 0.3 mg/kg
[5] = male, C57BL/6, plasma, IV, 1 mg/kg
[6] = male, C57BL/6, plasma, IV, 5 mg/kg
[7] = male, C57BL/6, plasma, PO, 10 mg/kg

## [2H]C([2H])([2H])N1CCC[C@@H]1Cc1c[nH]c2cccc(O)c12 [Compound I-2, (R)-3-((1-(methyl-d3)pyrrolidin-2-yl)methyl)-1H-indol-4-ol]
[1]
  effect of I-2 on HTR after pretreatment with 5-HT2A antagonist M100907: completely blocked
[2]; [4]
  AUC(0-inf): 28.7 ± 3.82 ng·h/mL
  C0: 77.4 ± 7.22 ng/mL
  clearance: 177 mL/min/kg
  AUC(0-t): 27.6 ± 3.27 ng·h/mL
  half-life: 0.593 ± 0.262 h
  MRT inf: 0.609 ± 0.0984 h
[2]; male, SD, plasma, IV, 0.3 mg/kg, read-out: Vss
  Vd: 6.45 ± 1.4 L/kg
[2]; male, SD, plasma, PO, 3 mg/kg
  AUC(0-inf): 419 ± 56.1 ng·h/mL
  Cmax: 201 ± 50.9 ng/mL
  Tmax: 0.333 ± 0.144 h
  AUC(0-t): 409 ± 46.1 ng·h/mL
  half-life: 2.69 ± 1.95 h
  MRT inf: 2.29 ± 0.567 h
[2]; male, SD, plasma, PO, 3 mg/kg, read-out: F (bioavailability)
  bioavailability: 146 ± 19.5%
[2]; IV, 0.3 mg/kg
  AUC0-inf/Dose: 95.6 ± 12.7 kg·ng·h/mL/mg
[2]; PO, 3 mg/kg
  AUC0-inf/Dose: 140 ± 18.7 kg·ng·h/mL/mg
  Cmax/Dose: 66.9 ± 17.0 kg·ng/mL/mg
[3]; [5]
  AUC(0-inf): 463 ± 423 ng·h/mL
  C0: 3590 ± 4100 ng/mL
  clearance: 64.5 mL/min/kg
  AUC(0-t): 461 ± 421 ng·h/mL
  half-life: 3.09 ± 2.79 h
  MRT inf: 0.733 ± 0.194 h
  Vd: 3.09 ± 3.22 L/kg
[3]; [6]
  AUC(0-inf): 1410 ± 862 ng·h/mL
  C0: 4780 ± 3570 ng/mL
  clearance: 72.8 mL/min/kg
  AUC(0-t): 1370 ± 869 ng·h/mL
  half-life: 12.7 ± 4.24 h
  MRT inf: 3.1 ± 1.43 h
  Vd: 15.3 ± 10.5 L/kg
[3]; [7]
  AUC(0-inf): 314 ng·h/mL
  Cmax: 117 ± 23.7 ng/mL
  Tmax: 0.25 h
  AUC(0-t): 271 ± 30.9 ng·h/mL
  half-life: 9.31 h
  MRT inf: 7.88 h
[3]; male, C57BL/6, plasma, PO, 10 mg/kg, read-out: F (bioavailability)
  bioavailability: 6.27 ± 0.906%
[3]; IV, 1 mg/kg
  AUC0-inf/Dose: 463 ± 423 kg·ng·h/mL/mg
[3]; IV, 5 mg/kg
  AUC0-inf/Dose: 282 ± 172 kg·ng·h/mL/mg
[3]; PO, 10 mg/kg
  AUC0-inf/Dose: 31.4 (n = 2) h*kg*ng/mL/mg
  Cmax/Dose: 11.7 ± 2.37 kg·ng/mL/mg
